Laboratory results as given in ChEMBL document CHEMBL1201862, “PubChem BioAssay data set” (2004).
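Test compounds were applied to cells in 96-well plates for 48 hours at 5 doses. GI50 = concentration required for 50% inhibition of growth.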 Activity calls are given as the source filed them. Cut-off read from the data, not from the text of the source: active = GI50 up to about 1.1 µM and inactive = higher.

Legend:
Experiment in all cases: NCI-60 cell line screen, 48 h
ACHN = test system: ACHN
RPMI-8226 = test system: RPMI-8226
K562 = test system: K562
LOX IMVI = test system: LOX IMVI
HT-29 = test system: HT-29
MDA-MB-435 = test system: MDA-MB-435
BT-549 = test system: BT-549
SW-620 = test system: SW-620
HOP-92 = test system: HOP-92
PC-3 = test system: PC-3
HOP-62 = test system: HOP-62
M14 = test system: M14
RXF 393 = test system: RXF 393
SK-MEL-5 = test system: SK-MEL-5
EKVX = test system: EKVX
KM12 = test system: KM12
Malme-3M = test system: Malme-3M
SNB-19 = test system: SNB-19
TK-10 = test system: TK-10
UO-31 = test system: UO-31
NCI/ADR-RES = test system: NCI/ADR-RES
SF-268 = test system: SF-268
U-251 = test system: U-251
UACC-62 = test system: UACC-62
A498 = test system: A498
CCRF-CEM = test system: CCRF-CEM
OVCAR-5 = test system: OVCAR-5
UACC-257 = test system: UACC-257
SF-295 = test system: SF-295
HCC 2998 = test system: HCC 2998
DU-145 = test system: DU-145
A549 = test system: A549
OVCAR-3 = test system: OVCAR-3
NCI-H226 = test system: NCI-H226
SK-MEL-28 = test system: SK-MEL-28
MDA-N = test system: MDA-N
786-0 = test system: 786-0
MCF7 = test system: MCF7
MOLT-4 = test system: MOLT-4
COLO 205 = test system: COLO 205
OVCAR-8 = test system: OVCAR-8
T47D = test system: T47D
OVCAR-4 = test system: OVCAR-4
SK-MEL-2 = test system: SK-MEL-2
NCI-H522 = test system: NCI-H522
NCI-H23 = test system: NCI-H23
Hs-578T = test system: Hs-578T
MDA-MB-231 = test system: MDA-MB-231
IGROV-1 = test system: IGROV-1
CAKI-1 = test system: CAKI-1
SF-539 = test system: SF-539
SNB-75 = test system: SNB-75
SR = test system: SR
HL-60 = test system: HL-60
SN12C = test system: SN12C
HCT-116 = test system: HCT-116
SK-OV-3 = test system: SK-OV-3
HCT-15 = test system: HCT-15
NCI-H460 = test system: NCI-H460

In the case of `COC(=O)[C@@H]1C=C[C@H](OC2OC(COC(C)=O)C(OC(C)=O)C(OC(C)=O)C2OC(C)=O)n2c(=O)n(-c3ccccc3)c(=O)n21` (stereo partly drawn), the GI50 (ACHN) is reported as 1720 nM (inactive), the GI50 (RPMI-8226) is reported as 1470 nM (inactive) and the GI50 (K562) is reported as 1610 nM (inactive). The GI50 (LOX IMVI) was 1560 nM (inactive), the GI50 (HT-29) was 1880 nM (inactive) and the GI50 (MDA-MB-435) was 5140 nM (inactive). The GI50 (BT-549) was 2290 nM (inactive), the GI50 (SW-620) was 1790 nM (inactive) and the GI50 (HOP-92) was 1770 nM (inactive). For the same molecule, the GI50 (PC-3) was 2770 nM (inactive), the GI50 (HOP-62) was 14500 nM (inactive) and the GI50 (M14) was 2360 nM (inactive). The GI50 (RXF 393) was 1950 nM (inactive), the GI50 (SK-MEL-5) was 2560 nM (inactive) and the GI50 (EKVX) was 5900 nM (inactive). For the same molecule, the GI50 (KM12) was 5500 nM (inactive), the GI50 (Malme-3M) was 2010 nM (inactive) and the GI50 (SNB-19) was 11400 nM (inactive). For the same molecule, the GI50 (TK-10) was 1790 nM (inactive), the GI50 (UO-31) was 2240 nM (inactive) and the GI50 (NCI/ADR-RES) was 6920 nM (inactive). The GI50 (SF-268) was 2510 nM (inactive), the GI50 (U-251) was 2800 nM (inactive) and the GI50 (UACC-62) was 3100 nM (inactive). For the same molecule, the GI50 (A498) was 7460 nM (inactive), the GI50 (CCRF-CEM) was 1480 nM (inactive) and the GI50 (OVCAR-5) was 6270 nM (inactive). The GI50 (UACC-257) was 2130 nM (inactive), the GI50 (SF-295) was 10800 nM (inactive) and the GI50 (HCC 2998) was 8000 nM (inactive). The GI50 (DU-145) was 4750 nM (inactive), the GI50 (A549) was 14700 nM (inactive) and the GI50 (OVCAR-3) was 1740 nM (inactive). For the same molecule, the GI50 (NCI-H226) was 12200 nM (inactive), the GI50 (SK-MEL-28) was 2330 nM (inactive) and the GI50 (MDA-N) was 2570 nM (inactive). The GI50 (786-0) was 1410 nM (inactive), the GI50 (MCF7) was 2350 nM (inactive) and the GI50 (MOLT-4) was 2130 nM (inactive). For the same molecule, the GI50 (COLO 205) was 1850 nM (inactive), the GI50 (OVCAR-8) was 2550 nM (inactive) and the GI50 (T47D) was 2570 nM (inactive). For the same molecule, the GI50 (OVCAR-4) was 1770 nM (inactive), the GI50 (SK-MEL-2) was 2250 nM (inactive) and the GI50 (NCI-H522) was 507 nM (active). The GI50 (NCI-H23) was 5300 nM (inactive), the GI50 (Hs-578T) was 17300 nM (inactive) and the GI50 (MDA-MB-231) was 2700 nM (inactive). For the same molecule, the GI50 (IGROV-1) was 3870 nM (inactive), the GI50 (CAKI-1) was 1200 nM (inactive) and the GI50 (SF-539) was 2740 nM (inactive). The GI50 (SNB-75) was 4060 nM (inactive), the GI50 (SR) was 1820 nM (inactive) and the GI50 (HL-60) was 1100 nM (active). For the same molecule, the GI50 (SN12C) was 2690 nM (inactive), the GI50 (HCT-116) was 1860 nM (inactive) and the GI50 (SK-OV-3) was 15900 nM (inactive). The GI50 (HCT-15) was 1840 nM and the GI50 (NCI-H460) was 14000 nM (inactive).

With `CN1CCC23c4c5ccc(Oc6nnnn6-c6ccccc6)c4OC2c2[nH]c4ccccc4c2CC3(O)C1C5` (stereo not drawn) the GI50 (ACHN) was 1740 nM (inactive), the GI50 (RPMI-8226) was 2220 nM (inactive) and the GI50 (K562) was 1810 nM (inactive). For the same molecule, the GI50 (LOX IMVI) was 1890 nM (inactive), the GI50 (HT-29) was 2380 nM (inactive) and the GI50 (MDA-MB-435) was 4010 nM (inactive). For the same molecule, the GI50 (BT-549) was 16500 nM (inactive), the GI50 (SW-620) was 2440 nM (inactive) and the GI50 (HOP-92) was 2070 nM (inactive). For the same molecule, the GI50 (PC-3) was 3680 nM (inactive), the GI50 (HOP-62) was 3240 nM (inactive) and the GI50 (M14) was 1850 nM (inactive). The GI50 (RXF 393) was 2280 nM (inactive), the GI50 (SK-MEL-5) was 2290 nM (inactive) and the GI50 (EKVX) was 9640 nM (inactive). For the same molecule, the GI50 (KM12) was 2820 nM (inactive), the GI50 (Malme-3M) was 1670 nM (inactive) and the GI50 (SNB-19) was 7660 nM (inactive). The GI50 (TK-10) was 1870 nM (inactive), the GI50 (UO-31) was 1750 nM (inactive) and the GI50 (NCI/ADR-RES) was 5370 nM (inactive). For the same molecule, the GI50 (SF-268) was 6890 nM (inactive), the GI50 (U-251) was 1850 nM (inactive) and the GI50 (UACC-62) was 1800 nM (inactive). For the same molecule, the GI50 (A498) was 2400 nM (inactive), the GI50 (CCRF-CEM) was 2080 nM (inactive) and the GI50 (OVCAR-5) was 17200 nM (inactive). For the same molecule, the GI50 (UACC-257) was 1830 nM (inactive), the GI50 (SF-295) was 3950 nM (inactive) and the GI50 (HCC 2998) was 1810 nM (inactive). For the same molecule, the GI50 (DU-145) was 7160 nM (inactive), the GI50 (A549) was 3960 nM (inactive) and the GI50 (OVCAR-3) was 9400 nM (inactive). The GI50 (NCI-H226) was 10800 nM (inactive), the GI50 (SK-MEL-28) was 2100 nM (inactive) and the GI50 (MDA-N) was 1730 nM (inactive). The GI50 (786-0) was 1770 nM (inactive), the GI50 (MCF7) was 2270 nM (inactive) and the GI50 (MOLT-4) was 1840 nM (inactive). For the same molecule, the GI50 (COLO 205) was 2290 nM (inactive), the GI50 (OVCAR-8) was 2860 nM (inactive) and the GI50 (T47D) was 6710 nM (inactive). The GI50 (OVCAR-4) was 2540 nM (inactive), the GI50 (SK-MEL-2) was 1780 nM (inactive) and the GI50 (NCI-H522) was 2000 nM (inactive). The GI50 (NCI-H23) was 16300 nM (inactive), the GI50 (Hs-578T) was 9250 nM (inactive) and the GI50 (MDA-MB-231) was 1810 nM (inactive). The GI50 (IGROV-1) was 8830 nM (inactive), the GI50 (CAKI-1) was 2160 nM (inactive) and the GI50 (SF-539) was 2620 nM (inactive). For the same molecule, the GI50 (SNB-75) was 2590 nM (inactive), the GI50 (SR) was 1640 nM (inactive) and the GI50 (HL-60) was 1810 nM (inactive). For the same molecule, the GI50 (SN12C) was 2750 nM (inactive), the GI50 (HCT-116) was 1830 nM (inactive) and the GI50 (SK-OV-3) was 9660 nM (inactive). The GI50 (HCT-15) was 2430 nM and the GI50 (NCI-H460) was 1850 nM (inactive).
